{"source": "patent US4419349A", "about": "(priority 1978, dated 1983)", "assay_type_in_all_cases": "cell-based", "key": {"mouse spleen cells": {"test_system": "mouse spleen cells", "experiment": "IF induction in vitro, mouse (Table 6)", "details": "control 1.0 μg/ml", "procedure": "(§1) A spleen cell suspension (10^7 cells/ml) was prepared by the method of hereinafter described Experiment 1 using an Eagle MEM medium (commercial product of Nissui Seiyaku K.K., Tokyo) containing a 10% calf serum (which was replaced by a 10% fetal cattle serum in the cases of human tests), each of which fraction (1 ml) was added with a given concentration of the sample of the active substance and incubated at a given temperature. The cultured liquor was centrifuged to separate a supernatant which was used for determining the IF activity induced. In the case of humans, the fresh spleen was collected from a person (adult deceased by external wounds) and used for the preparation of a leucocytes suspension on each occasion, and also blood was collected from the vein at the upper arm of a person (adult), from which the serum was separated to use for the preparation of a serum suspension on each occasion.\n(§2) The IF activities were determined by using the cells shown in Table 5 in a similar manner to that hereinafter described in Experiment 1."}, "human spleen cells": {"test_system": "human spleen cells", "experiment": "IF induction in vitro, human spleen (Table 6)", "details": "control 1.0 μg/ml", "procedure": "as §1, §2"}, "rabbit spleen cells": {"test_system": "rabbit spleen cells"}}}
{"substance": "Poly I:C", "values": [{"measurement": "IF activity in vitro (Control)", "setting": "mouse spleen cells", "result": 120}, {"measurement": "IF activity in vitro (Control)", "setting": "human spleen cells", "result": "< 5"}, {"measurement": "IF activity in vitro (Control)", "setting": "rabbit spleen cells", "result": 220}]}
